Test results published in article PMC9228412, “Synthesis and Activity of Triazole-Adenosine Analogs as Protein Arginine Methyltransferase 5 Inhibitors” (Molecules, 2022).

Legend:
PRMT5 = target: T1, PRMT5 (Homo sapiens, UniProt O14744); assay: scintillation proximity assay (SPA) of PRMT5 methyltransferase activity; type: biochemical; settings: for IC50: SPA, concentration-dependent, read-out: IC50 PRMT5 (converted); for IC50 / remaining activity at 10 µM: 0.5 μM H4(1–20)K20biotin, 0.5 μM 3H-SAM; for remaining activity at 10 µM: 0.5 h, remaining activity of the enzyme, single point SPA test, inhibitor 10 μM, read-out: Relative Activity of PRMT5 at 10 μM
T1 construct: His-tag; made in house; host or cells: Sf9 insect cells (Bac-to-Bac baculovirus)
Procedure: (§1) The methyltransferase activities of PRMT5 and PRMT1 in the absence and presence of the synthetic inhibitors were measured by using the scintillation proximity assay (SPA) protocol (Table 1). In the initial test, the inhibitor concentration was set at 10 μM. H4(1–20)K20biotin [Ac-[…](biotin)-NH2] was used as the peptide substrate, at a final concentration of 0.5 μM. ^3H-SAM was used as the methyl donor at 0.5 μM. SAH was used as a control inhibitor. […] Analysis of the biochemical activity results against PRMT5 disclosed a few interesting structure–activity relationship (SAR) trends. […] If the hydroxyl group of 3 was changed to an amine (6), the potency was improved; however, the selectivity was abolished. Generally, compounds that contained positive charges (6, 20, 21, 22, 24) near the triazole ring had further improved potencies.
Human recombinant His-tag PRMT5 was co-expressed with His-tag MEP50 using the Bac-to-Bac baculovirus expression system (Invitrogen, Life Technologies, Carlsbad, CA, USA) as previously described. Briefly, pFB-LIC-Bse-PRMT5 and pFB-LIC-Bse-MEP50 were heat shock transformed in the DH10Bac E. coli to obtain the recombinant bacmids, and the bacmids were extracted using the PureLink HiPure Plasmid Miniprep Kit (Invitrogen, Thermo Scientific, Carlsbad, CA, USA). The purity and concentration of the plasmid were measured by a Nanodrop. Sf9 cells were cultured in Sf-900 II SFM medium until the cell density reached 1.5 × 10^6 cells/mL and cell viability was more than 95%. Cells were plated in a 6-well tissue culture plate at a density of 4 × 10^5 cells/mL per well. In total, 2 µg of PRMT5 and MEP50 recombinant bacmid were transfected into each well of cells. After 5 h of transfection, the transfection medium was replaced by 2 mL of Sf-900 II SFM + 100 U P/S per well. The medium was collected and centrifuged at 1000 rpm for 5 min to obtain the supernatant P1 viral stock after 7 days of inoculation at 27.5 °C. To obtain a higher titer of viral stock, P1 viral stock was amplified in a 6-well tissue culture plate containing 2 × 10^6 cells per well. In total, 0.1 MOI of P1 virus stock was added into each well. After 7 days of incubation at 27.5 °C, the cell medium was centrifuged at 1000 rpm for 5 min to obtain the P2 viral stock in the supernatant. The Baculovirus plaque assay was performed to determine the viral titer concentration; the target concentration range was 1 × 10^7–1 × 10^8 IFU/mL.
For the expression of PRMT5 and MEP50, Sf9 insect cells were cultured in suspension at 27.5 °C at a speed of 130 rpm in Expression Systems ESF 921 medium with 100 U P/S. In total, 200 mL of Sf9 cell culture was inoculated with PRMT5 and MEP50 P2 viral stocks when the cell density reached 1.5 × 10^6 cells/mL. After incubation for 72 h at 27.5 °C, the cells were harvested and centrifuged. PRMT5 and MEP50 protein were collected in the cell pellet for further purification. Cell pellets were disrupted twice at 100 psi in 25 mL of cell lysis buffer (50 mM Tris pH 8, 300 mM NaCl, 10% glycerol, 0.1% Triton X-100, 1 mM PMSF). Before the Ni-NTA purification, 10 mL of Ni-NTA resin (EMD Millipore, Burlington, MA, USA) was loaded into a 50 mL column and equilibrated with equilibration buffer (50 mM Tris pH 8, 250 mM NaCl, 30 mM Imidazole, 10% glycerol, 1 mM TCEP, 1 mM PMSF). After 60 min of cell lysate centrifugation at 4 °C at 18,000 rpm, the cell lysate supernatant was incubated with the equilibrated nickel resin. The resin was washed with equilibration buffer and protein was eluted with elution buffer (50 mM Tris pH 8, 250 mM NaCl, 300 mM Imidazole, 10% glycerol, 1 mM TCEP, 1 mM PMSF). For the dialysis of protein, elution samples were loaded into a 10,000 MWCO SnakeSkin (Thermo Scientific, Waltham, MA, USA) dialysis bag in the storage buffer (50 mM Tris pH 8, 250 mM NaCl, 10% glycerol, 1 mM TCEP). […]

PRMT1 = PRMT1 (Homo sapiens, UniProt Q99873); assay: scintillation proximity assay (SPA) of PRMT1 methyltransferase activity; type: biochemical; settings: for IC50: SPA, concentration-dependent, read-out: IC50 PRMT1 (converted); for remaining activity at 10 µM: 0.5 h, remaining activity of the enzyme, single point SPA test, inhibitor 10 μM, read-out: Relative Activity of PRMT1 at 10 μM
Procedure: as §1
Inhibitor was dissolved in water to create a 10 mM stock concentration. This was then diluted in buffer (50 mM HEPES pH 8, 10 mM NaCl, 0.5 mM EDTA, 0.5 mM DTT in H2O) to create a series of working concentrations centered around an anticipated IC50. [H]^3-SAM and substrate were diluted together in buffer to working concentrations of […], respectively. To each well in a 96-well plate, 6 μL of the inhibitor solution was added, with negative and positive controls receiving buffer. In total, 6 μL of the [H]^3-SAM/substrate solution was then added to each well. The enzyme was then diluted in buffer to a working concentration of 0.83 μM, and 18 μL was added to each well, with negative controls receiving 18 μL of buffer. The plate was covered, and the reaction was allowed to run for 30 min and was then quenched with the addition of 30 μL of 100% iPrOH followed by 60 μL of 50% iPrOH in H2O. In total, 10 μL of 20 mg/mL streptavidin-coated scintillant beads were added and the plate was read using a MicroBeta (Perkin Elmer, Waltham, MA, USA) plate reader. The CPM counts in the absence of an inhibitor for each data set were considered as 100% activity. In the absence of the enzyme and inhibitor, the CPM counts in each data set were defined as background (0%).

T1 sequence (O14744 whole entry): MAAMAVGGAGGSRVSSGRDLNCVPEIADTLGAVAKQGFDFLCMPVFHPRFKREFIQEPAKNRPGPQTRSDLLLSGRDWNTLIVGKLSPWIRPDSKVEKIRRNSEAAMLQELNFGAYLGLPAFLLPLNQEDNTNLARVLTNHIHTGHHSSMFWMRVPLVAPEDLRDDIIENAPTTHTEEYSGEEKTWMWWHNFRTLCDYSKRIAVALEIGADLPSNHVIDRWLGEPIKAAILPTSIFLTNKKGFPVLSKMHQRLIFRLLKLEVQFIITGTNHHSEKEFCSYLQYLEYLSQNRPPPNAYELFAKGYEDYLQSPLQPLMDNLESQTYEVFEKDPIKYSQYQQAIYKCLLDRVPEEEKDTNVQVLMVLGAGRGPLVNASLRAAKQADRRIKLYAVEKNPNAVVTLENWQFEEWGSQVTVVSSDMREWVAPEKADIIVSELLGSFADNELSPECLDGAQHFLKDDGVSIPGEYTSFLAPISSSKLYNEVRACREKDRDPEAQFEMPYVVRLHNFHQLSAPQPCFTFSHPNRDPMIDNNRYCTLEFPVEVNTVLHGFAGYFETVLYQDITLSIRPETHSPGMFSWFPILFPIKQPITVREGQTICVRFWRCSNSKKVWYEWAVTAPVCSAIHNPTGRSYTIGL
T1 sequence (Q9BQA1 whole entry partner): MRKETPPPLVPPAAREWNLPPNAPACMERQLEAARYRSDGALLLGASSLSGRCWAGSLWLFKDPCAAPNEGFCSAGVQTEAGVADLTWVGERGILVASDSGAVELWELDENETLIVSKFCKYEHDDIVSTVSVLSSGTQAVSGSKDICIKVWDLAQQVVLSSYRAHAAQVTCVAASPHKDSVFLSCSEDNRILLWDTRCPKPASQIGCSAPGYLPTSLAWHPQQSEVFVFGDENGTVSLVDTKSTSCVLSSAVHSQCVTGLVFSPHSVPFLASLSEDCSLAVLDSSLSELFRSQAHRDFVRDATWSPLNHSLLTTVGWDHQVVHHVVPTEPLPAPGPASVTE
Chain of PRMT1 (Q99873 whole entry, species assumed): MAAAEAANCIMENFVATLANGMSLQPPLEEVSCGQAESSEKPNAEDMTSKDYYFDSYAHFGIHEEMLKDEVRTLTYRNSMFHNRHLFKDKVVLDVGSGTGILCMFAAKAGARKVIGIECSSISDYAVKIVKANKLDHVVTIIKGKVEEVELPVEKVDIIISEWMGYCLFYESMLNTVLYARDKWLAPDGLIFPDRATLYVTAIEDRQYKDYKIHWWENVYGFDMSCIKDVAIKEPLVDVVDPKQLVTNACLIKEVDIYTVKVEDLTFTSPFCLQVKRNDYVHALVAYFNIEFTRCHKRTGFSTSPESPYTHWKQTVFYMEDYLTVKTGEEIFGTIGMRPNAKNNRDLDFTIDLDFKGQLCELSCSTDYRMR

| SMILES | IC50 (PRMT5) | IC50 (PRMT1) | remaining activity at 10 µM (PRMT5) | remaining activity at 10 µM (PRMT1) | selectivity for PRMT5 over PRMT1 (PRMT5; ratio of IC50 values) |
| --- | --- | --- | --- | --- | --- |
| CC(C)(C)c1cn(C[C@H]2O[C@@H](n3cnc4c(N)ncnc43)[C@H](O)[C@@H]2O)nn1 [Compound 8, (2R,3R,4S,5R)-2-(6-amino-9H-purin-9-yl)-5-((4-(tert-butyl)-1H-1,2,3-triazol-1-yl)methyl)tetrahydrofuran-3,4-diol] | 7.7 µM | > 1 mM | – | – | – |
| C[Si](C)(C)Cc1cn(C[C@H]2O[C@@H](n3cnc4c(N)ncnc43)[C@H](O)[C@@H]2O)nn1 [Compound 9, (2R,3R,4S,5R)-2-(6-amino-9H-purin-9-yl)-5-((4-((trimethylsilyl)methyl)-1H-1,2,3-triazol-1-yl)methyl)tetrahydrofuran-3,4-diol] | > 200 µM | > 1 mM | – | – | – |
| Nc1ncnc2c1ncn2[C@@H]1O[C@H](Cn2cc(C[C@H](N)C(=O)O)nn2)[C@@H](O)[C@H]1O [Compound 19, (S)-2-amino-3-(1-(((2R,3S,4R,5R)-5-(6-amino-9H-purin-9-yl)-3,4-dihydroxytetrahydrofuran-2-yl)methyl)-1H-1,2,3-triazol-4-yl)propanoic acid] | 18.9 µM | > 0.2 mM | – | – | – |
| Nc1ncnc2c1ncn2[C@@H]1O[C@H](Cn2cc(CCCC(=O)O)nn2)[C@@H](O)[C@H]1O [Compound 12, 4-(1-(((2R,3S,4R,5R)-5-(6-amino-9H-purin-9-yl)-3,4-dihydroxytetrahydrofuran-2-yl)methyl)-1H-1,2,3-triazol-4-yl)butanoic acid] | > 400 µM | – | 73 ± 12% | 99.3 ± 6.7% | – |
| NCc1cn(C[C@H]2O[C@@H](n3cnc4c(N)ncnc43)[C@H](O)[C@@H]2O)nn1 [Compound 6, (2R,3R,4S,5R)-2-(6-amino-9H-purin-9-yl)-5-((4-(aminomethyl)-1H-1,2,3-triazol-1-yl)methyl)tetrahydrofuran-3,4-diol] | 1.2 µM | – | 61 ± 8% | 96.3 ± 8% | – |
| CC(C)[C@H](N)C(=O)OCc1cn(C[C@H]2O[C@@H](n3cnc4c(N)ncnc43)[C@H](O)[C@@H]2O)nn1 [Compound 20, (1-(((2R,3S,4R,5R)-5-(6-amino-9H-purin-9-yl)-3,4-dihydroxytetrahydrofuran-2-yl)methyl)-1H-1,2,3-triazol-4-yl)methyl L-valinate] | 0.88 µM | 0.0435 mM | 26 ± 0.45% | 111 ± 5.5% | approximately 49 fold |
| Nc1ncnc2c1ncn2[C@@H]1O[C@H](Cn2cc(C[C@H](NC(=O)OCC3c4ccccc4-c4ccccc43)C(=O)O)nn2)[C@@H](O)[C@H]1O [Compound 18, (S)-2-((((9H-fluoren-9-yl)methoxy)carbonyl)amino)-3-(1-(((2R,3S,4R,5R)-5-(6-amino-9H-purin-9-yl)-3,4-dihydroxytetrahydrofuran-2-yl)methyl)-1H-1,2,3-triazol-4-yl)propanoic acid] | – | – | 56 ± 6.4% | 91.2 ± 4.7% | – |
| Nc1ncnc2c1ncn2[C@@H]1O[C@H](Cn2cc(C(=O)O)nn2)[C@@H](O)[C@H]1O [Compound 11, 1-(((2R,3S,4R,5R)-5-(6-amino-9H-purin-9-yl)-3,4-dihydroxytetrahydrofuran-2-yl)methyl)-1H-1,2,3-triazole-4-carboxylic acid] | – | – | 74 ± 11% | 96.9 ± 2.2% | – |
| Nc1ncnc2c1ncn2[C@@H]1O[C@H](Cn2cc(CNC(=O)Nc3ccc(Cl)cc3)nn2)[C@@H](O)[C@H]1O [Compound 23] | – | – | 70 ± 5.6% | 91.8 ± 16% | – |
| COCc1cn(C[C@H]2O[C@@H](n3cnc4c(N)ncnc43)[C@H](O)[C@@H]2O)nn1 [Compound 4, (2R,3R,4S,5R)-2-(6-amino-9H-purin-9-yl)-5-((4-(methoxymethyl)-1H-1,2,3-triazol-1-yl)methyl)tetrahydrofuran-3,4-diol] | 144 µM | > 1 mM | – | – | – |
| CC(C)(C)OC(=O)NCC(=O)NCc1cn(C[C@H]2O[C@@H](n3cnc4c(N)ncnc43)[C@H](O)[C@@H]2O)nn1 [Compound 25] | – | – | 72 ± 9.6% | 99.1 ± 13% | – |
| Nc1ncnc2c1ncn2[C@@H]1O[C@H](Cn2cc(CCCCC(=O)O)nn2)[C@@H](O)[C@H]1O [Compound 13, 5-(1-(((2R,3S,4R,5R)-5-(6-amino-9H-purin-9-yl)-3,4-dihydroxytetrahydrofuran-2-yl)methyl)-1H-1,2,3-triazol-4-yl)pentanoic acid] | > 40 µM | – | 57 ± 4.4% | 92.7 ± 10% | – |
| CC(C)(C)OC(=O)NCCS(=O)(=O)Cc1cn(C[C@H]2O[C@@H](n3cnc4c(N)ncnc43)[C@H](O)[C@@H]2O)nn1 [Compound 28] | – | – | 76 ± 11% | 77 ± 23% | – |
| Nc1ncnc2c1ncn2[C@@H]1O[C@H](Cn2cc(CNC(=O)OCc3ccccc3)nn2)[C@@H](O)[C@H]1O [Compound 16] | – | – | 80 ± 9.5% | 101 ± 10% | – |
| Nc1ncnc2c1ncn2[C@@H]1O[C@H](Cn2ccnn2)[C@@H](O)[C@H]1O [Compound 2, (2R,3S,4R,5R)-2-((1H-1,2,3-triazol-1-yl)methyl)-5-(6-amino-9H-purin-9-yl)tetrahydrofuran-3,4-diol] | 27 µM | > 1 mM | – | – | – |
| Nc1ncnc2c1ncn2[C@@H]1O[C@H](Cn2cc(CCO)nn2)[C@@H](O)[C@H]1O [Compound 5, (2R,3R,4S,5R)-2-(6-amino-9H-purin-9-yl)-5-((4-(2-hydroxyethyl)-1H-1,2,3-triazol-1-yl)methyl)tetrahydrofuran-3,4-diol] | 195 µM | > 1 mM | – | – | – |
| Nc1ncnc2c1ncn2[C@@H]1O[C@H](Cn2cc(-c3ccccc3)nn2)[C@@H](O)[C@H]1O [Compound 14, (2R,3R,4S,5R)-2-(6-amino-9H-purin-9-yl)-5-((4-phenyl-1H-1,2,3-triazol-1-yl)methyl)tetrahydrofuran-3,4-diol] | 2.6 µM | – | 51 ± 5.7% | 90.1 ± 5.7% | – |
| CCC(=O)Oc1ccc(CCc2cn(C[C@H]3O[C@@H](n4cnc5c(N)ncnc54)[C@H](O)[C@@H]3O)nn2)cc1OC(=O)C(C)C [Compound 17] | – | – | 56 ± 10% | 91 ± 11% | – |
